Experimental data reported in US20070254910A1, “CHEMICAL COMPOUNDS” (priority 2004, published 2007).

system: HIV; test: HOS HIV anti-infectivity assay (strain not stated); assay type: cell-based; settings: Human immunodeficiency virus 1, HOS HIV anti-infectivity assay; read-out: Activity Level
Procedure: Compounds were profiled against two HIV-1 viruses, the M-tropic (CCR5 utilizing) Ba-L strain and the T-tropic (CXCR4 utilizing) IIIB strain. Both viruses were propagated in human peripheral blood lymphocytes. Compounds were tested for there ability to block infection of the HOS cell line (expressing hCXCR4/hCCR5/hCD4/pHIV-LTR-luciferase) by either HIV-1 Ba-L or HIV-1 IIIB. Compound cytotoxicity was also examined in the absence of virus addition.
HOS cells (expressing hCXCR4/hCCR5/hCD4/pHIV-LTR-luciferase) were harvested and diluted in Dulbeccos modified Eagles media supplemented with 2% FCS and non-essential amino acid to a concentration of 60,000 cells/ml. The cells were plated into 96-well plates (100 ul per well) and the plates were placed in a tissue culture incubator (37° C.; 5% CO2/95% air) for a period of 24 h.
Subsequently, 50 ul of the desired drug solution (4 times the final concentration) was added to each well and the plates were returned to the tissue culture incubator (37° C.; 5% CO2/95% air) for 1 h. Following this incubation 50 ul of diluted virus was added to each well (approximately 2 million RLU per well of virus). The plates were returned to the tissue culture incubator (37° C.; 5% CO2/95% air) and were incubated for a further 96 h.
Following this incubation the endpoint for the virally infected cultures was quantified following addition of Steady-Glo Luciferase assay system reagent (Promega, Madison, Wis.). Cell viability or non-infected cultures was measured using a CellTiter-Glo luminescent cell viability assay system (Promega, Madison, Wis.). All luminescent readouts are performed on a Topcount luminescence detector (Packard, Meridien, Conn.).

IC50, < 100 nM:
CN1CCN(c2cccc3nc(CN(C)C4CCCc5cccnc54)c(CO)n23)CC1 (centres unmarked) [Example 20, (5-(4-Methyl-1-piperazinyl)-2-{[methyl(5,6,7,8-tetrahydro-8-quinolinyl)amino]methyl}imidazo[1,2-a]pyridin-3-yl)methanol]
COc1ccc([C@H](C)N(Cc2nc3cccc(N4CCN(C)CC4)n3c2CO)[C@H]2CCCc3cccnc32)cc1 [Example 22, [2-({{(1S)-1-[4-(Methyloxy)phenyl]ethyl}[(8S)-5,6,7,8-tetrahydro-8-quinolinyl]amino}methyl)-5-(4-methyl-1-piperazinyl)imidazo[1,2-a]pyridin-3-yl]methanol]
CN1CCN(c2cccc3nc(CN(C)[C@H]4CCCc5cccnc54)c(CO)n23)CC1 [Example 25, [5-(4-Methyl-1-piperazinyl)-2-({methyl[(8S)-5,6,7,8-tetrahydro-8-quinolinyl]amino}methyl)imidazo[1,2-a]pyridin-3-yl]methanol]
CN(C)CCN(C)c1cccc2nc(CN(C)[C@H]3CCCc4cccnc43)c(CO)n12 [Example 28, [5-[[2-(Dimethylamino)ethyl](methyl)amino]-2-({methyl[(8S)-5,6,7,8-tetrahydro-8-quinolinyl]amino}methyl)imidazo[1,2-a]pyridin-3-yl]methanol]
CN1CCN(c2cccc3nc(CN(C)C4CCCCc5cccnc54)c(CO)n23)CC1 (centres unmarked) [Example 30, (5-(4-Methyl-1-piperazinyl)-2-{[methyl(6,7,8,9-tetrahydro-5H-cyclohepta[b]pyridin-9-yl)amino]methyl}imidazo[1,2-a]pyridin-3-yl)methanol]
CCN(Cc1nc2cccc(N3CCN(C)CC3)n2c1CO)[C@H]1CCCc2cccnc21 [Example 32, [2-({Ethyl[(8S)-5,6,7,8-tetrahydro-8-quinolinyl]amino}methyl)-5-(4-methyl-1-piperazinyl)imidazo[1,2-a]pyridin-3-yl]methanol]
CC(C)N(Cc1nc2cccc(N3CCN(C)CC3)n2c1CO)[C@H]1CCCc2cccnc21 [Example 34, [2-({(1-Methylethyl)[(8S)-5,6,7,8-tetrahydro-8-quinolinyl]amino}methyl)-5-(4-methyl-1-piperazinyl)imidazo[1,2-a]pyridin-3-yl]methanol]
CCCN(Cc1nc2cccc(N3CCN(C)CC3)n2c1CO)[C@H]1CCCc2cccnc21 [Example 36, [5-(4-Methyl-1-piperazinyl)-2-({propyl[(8S)-5,6,7,8-tetrahydro-8-quinolinyl]amino}methyl)imidazo[1,2-a]pyridin-3-yl]methanol]
CN1CCN(c2cccc3nc(CN(CC4CC4)[C@H]4CCCc5cccnc54)c(CO)n23)CC1 [Example 38, [2-({(Cyclopropylmethyl)[(8S)-5,6,7,8-tetrahydro-8-quinolinyl]amino}methyl)-5-(4-methyl-1-piperazinyl)imidazo[1,2-a]pyridin-3-yl]methanol]
CN1CCN(c2cccc3nc(CN(Cc4ccccc4)[C@H]4CCCc5cccnc54)c(CO)n23)CC1 [Example 40, [5-(4-Methyl-1-piperazinyl)-2-({(phenylmethyl)[(8S)-5,6,7,8-tetrahydro-8-quinolinyl]amino}methyl)imidazo[1,2-a]pyridin-3-yl]methanol]
CN1CCN(c2cccc3nc(CN(Cc4ccc(C(F)(F)F)cc4)[C@H]4CCCc5cccnc54)c(CO)n23)CC1 [Example 42, {5-(4-Methyl-1-piperazinyl)-2-[((8S)-5,6,7,8-tetrahydro-8-quinolinyl{[4-(trifluoromethyl)phenyl]methyl}amino)methyl]imidazo[1,2-a]pyridin-3-yl}methanol]
CN(Cc1nc2cccc(N3CCN4CCCC4C3)n2c1CO)[C@H]1CCCc2cccnc21 (stereo partly drawn) [Example 44, [5-(Hexahydropyrrolo[1,2-a]pyrazin-2(1H)-yl)-2-({methyl[(8S)-5,6,7,8-tetrahydro-8-quinolinyl]amino}methyl)imidazo[1,2-a]pyridin-3-yl]methanol]
CN(C)[C@@H]1CCN(c2cccc3nc(CN(C)[C@H]4CCCc5cccnc54)c(CO)n23)C1 [Example 46, [5-[(3R)-3-(Dimethylamino)-1-pyrrolidinyl]-2-({methyl[(8S)-5,6,7,8-tetrahydro-8-quinolinyl]amino}methyl)imidazo[1,2-a]pyridin-3-yl]methanol]
CN(Cc1nc2cccc(N3CCCNCC3)n2c1CO)[C@H]1CCCc2cccnc21 [Example 48, [5-(Hexahydro-1H-1,4-diazepin-1-yl)-2-({methyl[(8S)-5,6,7,8-tetrahydro-8-quinolinyl]amino}methyl)imidazo[1,2-a]pyridin-3-yl]methanol]
CN1CCCN(c2cccc3nc(CN(C)[C@H]4CCCc5cccnc54)c(CO)n23)CC1 [Example 50, [5-(4-Methylhexahydro-1H-1,4-diazepin-1-yl)-2-({methyl[(8S)-5,6,7,8-tetrahydro-8-quinolinyl]amino}methyl)imidazo[1,2-a]pyridin-3-yl]methanol]
CN1CCC(N(C)c2cccc3nc(CN(C)[C@H]4CCCc5cccnc54)c(CO)n23)C1 (stereo partly drawn) [Example 52, [5-[Methyl(1-methyl-3-pyrrolidinyl)amino]-2-({methyl[(8S)-5,6,7,8-tetrahydro-8-quinolinyl]amino}methyl)imidazo[1,2-a]pyridin-3-yl]methanol]
CCN1CCN(c2cccc3nc(CN(C)[C@H]4CCCc5cccnc54)c(CO)n23)CC1 [Example 54, [5-(4-Ethyl-1-piperazinyl)-2-({methyl[(8S)-5,6,7,8-tetrahydro-8-quinolinyl]amino}methyl)imidazo[1,2-a]pyridin-3-yl]methanol]
CC(C)N1CCN(c2cccc3nc(CN(C)[C@H]4CCCc5cccnc54)c(CO)n23)CC1 [Example 56, [5-[4-(1-Methylethyl)-1-piperazinyl]-2-({methyl[(8S)-5,6,7,8-tetrahydro-8-quinolinyl]amino}methyl)imidazo[1,2-a]pyridin-3-yl]methanol]
CN(C)[C@H]1CCN(c2cccc3nc(CN(C)[C@H]4CCCc5cccnc54)c(CO)n23)C1 [Example 58, [5-[(3S)-3-(Dimethylamino)-1-pyrrolidinyl]-2-({methyl[(8S)-5,6,7,8-tetrahydro-8-quinolinyl]amino}methyl)imidazo[1,2-a]pyridin-3-yl]methanol]
CN(Cc1nc2cccc(N3CC[C@@H](N)C3)n2c1CO)[C@H]1CCCc2cccnc21 [Example 60, [5-[(3R)-3-Amino-1-pyrrolidinyl]-2-({methyl[(8S)-5,6,7,8-tetrahydro-8-quinolinyl]amino}methyl)imidazo[1,2-a]pyridin-3-yl]methanol]
CN[C@@H]1CCN(c2cccc3nc(CN(C)[C@H]4CCCc5cccnc54)c(CO)n23)C1 [Example 63, [5-[(3R)-3-(Methylamino)-1-pyrrolidinyl]-2-({methyl[(8S)-5,6,7,8-tetrahydro-8-quinolinyl]amino}methyl)imidazo[1,2-a]pyridin-3-yl]methanol]
CCN(Cc1nc2cccc(N3CC[C@@H](N(C)C)C3)n2c1CO)[C@H]1CCCc2cccnc21 [Example 66, [5-[(3R)-3-(Dimethylamino)-1-pyrrolidinyl]-2-({ethyl[(8S)-5,6,7,8-tetrahydro-8-quinolinyl]amino}methyl)imidazo[1,2-a]pyridin-3-yl]methanol]
CCCN(Cc1nc2cccc(N3CC[C@@H](N(C)C)C3)n2c1CO)[C@H]1CCCc2cccnc21 [Example 68, [5-[(3R)-3-(Dimethylamino)-1-pyrrolidinyl]-2-({propyl[(8S)-5,6,7,8-tetrahydro-8-quinolinyl]amino}methyl)imidazo[1,2-a]pyridin-3-yl]methanol]
CC(C)N(Cc1nc2cccc(N3CC[C@@H](N(C)C)C3)n2c1CO)[C@H]1CCCc2cccnc21 [Example 70, [5-[(3R)-3-(Dimethylamino)-1-pyrrolidinyl]-2-({(1-methylethyl)[(8S)-5,6,7,8-tetrahydro-8-quinolinyl]amino}methyl)imidazo[1,2-a]pyridin-3-yl]methanol]
CN(C)[C@@H]1CCN(c2cccc3nc(CN(CC4CC4)[C@H]4CCCc5cccnc54)c(CO)n23)C1 [Example 72, {2-({(Cyclopropylmethyl)[(8S)-5,6,7,8-tetrahydro-8-quinolinyl]amino}methyl)-5-[(3R)-3-(dimethylamino)-1-pyrrolidinyl]imidazo[1,2-a]pyridin-3-yl}methanol]
CN(Cc1nc2cccc(N3CCC(N)CC3)n2c1CO)[C@H]1CCCc2cccnc21 [Example 76, [5-(4-Amino-1-piperidinyl)-2-({methyl[(8S)-5,6,7,8-tetrahydro-8-quinolinyl]amino}methyl)imidazo[1,2-a]pyridin-3-yl]methanol]
